Measured values published in the supplement of paper PMC11061612.

How the values were obtained:
Assay in all cases: combination Emax (second highest fraction inhibited in the dose matrix, 72 h); higher = more inhibition; extreme values may be limits of the assay
[1] = tested on: RCM-1 (Colorectal Carcinoma)
How it was run: (§1)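 Cell lines in DMEM/F12 or RPMI with 10% FBS were plated in 1536-well plates, held 24 hours at 37°C, 5% CO2, then given two-drug dose matrices for 72 hours (DMSO typically 0.2%). Viability was read by CellTiter-Glo 2.0 luminescence and scaled as inhibition from 0 (vehicle wells) to 1 (blank wells). Combination Emax is the second-highest inhibition in the matrix; Bliss excess is observed combination effect minus expected EA + EB − EA·EB, EA and EB being single-agent effects.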

[2] = tested on: PC-3_[JPC-3] (Lung Adenocarcinoma)
How it was run: as §1

[3] = tested on: COLO-680N (Esophageal Squamous Cell Carcinoma)
How it was run: as §1

[4] = tested on: VAL (B-Cell Non-Hodgkin's Lymphoma)
How it was run: as §1

[5] = tested on: PANC-03-27 (Pancreatic Carcinoma)
How it was run: as §1

[6] = tested on: NCI-H2342 (Lung Adenocarcinoma)
How it was run: as §1

[7] = tested on: TE-8 (Esophageal Squamous Cell Carcinoma)
How it was run: as §1

[8] = tested on: IST-MES1 (Mesothelioma)
How it was run: as §1

[9] = tested on: MKN45 (Gastric Carcinoma)
How it was run: as §1

[10] = tested on: REH (B-Lymphoblastic Leukemia)
How it was run: as §1

[11] = tested on: SK-PN-DW (Other Solid Carcinomas)
How it was run: as §1

[12] = tested on: NB12 (Neuroblastoma)
How it was run: as §1

[13] = tested on: CAL-62 (Thyroid Gland Carcinoma)
How it was run: as §1

[14] = tested on: OVMIU (Ovarian Carcinoma)
How it was run: as §1

[15] = tested on: RKN (Other Solid Carcinomas)
How it was run: as §1

[16] = tested on: L-1236 (Hodgkin's Lymphoma)
How it was run: as §1

[17] = tested on: LK-2 (Squamous Cell Lung Carcinoma)
How it was run: as §1

[18] = tested on: SK-MEL-2 (Melanoma)
How it was run: as §1

[19] = tested on: SHP-77 (Small Cell Lung Carcinoma)
How it was run: as §1

[20] = tested on: OPM-2 (Plasma Cell Myeloma)
How it was run: as §1

Which “combination Emax” value [1] does the source give for `C=CCn1c(=O)c2cnc(Nc3ccc(N4CCN(C)CC4)cc3)nc2n1-c1cccc(C(C)(C)O)n1` [AZD1775] + CCc1c2c(nc3ccc(O)cc13)-c1cc3c(c(=O)n1C2)COC(=O)[C@]3(O)CC [SN-38] (first compound max 1 µM, partner max 0.3 µM) here?
Its value is 0.775.

And the “combination Emax” value [2]?
The value was 0.736.

And the “combination Emax” value [3]?
The value was 0.483.

What about the “combination Emax” value [4] of the same compound?
The value was 0.953.

What about the “combination Emax” value [5] of the same compound?
The value was 0.844.

What about the “combination Emax” value [6] of the same compound?
Its value is 0.737.

What about the “combination Emax” value [7] of the same compound?
The value was 0.923.

What about the “combination Emax” value [8] of the same compound?
Its value is 0.778.

And the “combination Emax” value [9]?
The value was 0.843.

What about the “combination Emax” value [10] of the same compound?
The value was 0.989.

What about the “combination Emax” value [11] of the same compound?
The value was 0.947.

And the “combination Emax” value [12]?
The value was 0.879.

What about the “combination Emax” value [13] of the same compound?
The value was 0.893.

What about the “combination Emax” value [14] of the same compound?
The value was 0.587.

What about the “combination Emax” value [15] of the same compound?
Its value is 0.817.

What about the “combination Emax” value [16] of the same compound?
Its value is 0.969.

And the “combination Emax” value [17]?
Its value is 0.975.

What about the “combination Emax” value [18] of the same compound?
The value was 0.619.

What about the “combination Emax” value [19] of the same compound?
The value was 0.651.

What about the “combination Emax” value [20] of the same compound?
Its value is 0.954.

What does the source list for `N#Cc1cnc(Nc2cc(NC[C@H]3CNCCO3)c(C(F)(F)F)cn2)cn1` [SRA737] + O=c1[nH]cc(F)c(=O)[nH]1 [5-Fluorouracil] (first compound max 10 µM, 7x7, partner max 20 µM)?
combination Emax [1]: 0.578; combination Emax [2]: 0.102; combination Emax [3]: 0.387; combination Emax [4]: 0.775; combination Emax [5]: 0.725; combination Emax [6]: 0.1; combination Emax [7]: 0.413; combination Emax [8]: 0.288; combination Emax [9]: 0.697; combination Emax [10]: 0.798; combination Emax [11]: 0.956; combination Emax [12]: 0.173; combination Emax [13]: 0.371; combination Emax [14]: 0.413; combination Emax [15]: 0.344; combination Emax [16]: 0.94; combination Emax [17]: 0.686; combination Emax [18]: 0.113; combination Emax [19]: 0.786; combination Emax [20]: 0.84

With `CS(=O)(=O)CCNCc1ccc(-c2ccc3ncnc(Nc4ccc(OCc5cccc(F)c5)c(Cl)c4)c3c2)o1` [Lapatinib] + Cn1cnc2c(F)c(Nc3ccc(Br)cc3Cl)c(C(=O)NOCCO)cc21 [Selumetinib] (first compound max 10 µM, 7x7, partner max 10 µM) as the compound, how does the “combination Emax” value [1] read?
Its value is 0.754.

What about the “combination Emax” value [2] of the same compound?
The value was 0.653.

What about the “combination Emax” value [3] of the same compound?
Its value is 0.408.

And the “combination Emax” value [4]?
Its value is 0.597.

And the “combination Emax” value [5]?
Its value is 0.812.

What about the “combination Emax” value [6] of the same compound?
Its value is 0.257.

And the “combination Emax” value [7]?
Its value is 0.521.

What about the “combination Emax” value [8] of the same compound?
The value was 0.55.

And the “combination Emax” value [9]?
Its value is 0.635.

What about the “combination Emax” value [10] of the same compound?
Its value is 0.237.

What about the “combination Emax” value [11] of the same compound?
Its value is 0.556.

What about the “combination Emax” value [12] of the same compound?
Its value is 0.354.

And the “combination Emax” value [13]?
The value was 0.477.

And the “combination Emax” value [14]?
Its value is 0.671.

And the “combination Emax” value [15]?
The value was 0.369.

And the “combination Emax” value [16]?
Its value is 0.712.

And the “combination Emax” value [17]?
The value was 0.485.

What about the “combination Emax” value [18] of the same compound?
Its value is 0.793.

What about the “combination Emax” value [19] of the same compound?
Its value is 0.387.

And the “combination Emax” value [20]?
The value was 0.533.

`Cc1nc(-c2cn3c(n2)-c2ccc(-c4cnn(C(C)(C)C(N)=O)c4)cc2OCC3)n(C(C)C)n1` [Taselisib] + O=C(Nc1ccc2[nH]nc(-c3ccncc3)c2c1)[C@@H]1CCN(CC(=O)N2CCN(c3ccc(-c4ncccn4)cc3)CC2)C1 [SCH772984] (first compound max 10 µM, 7x7, partner max 5 µM) was tested. Which “combination Emax” value [1] did it give?
The value was 0.803.

And the “combination Emax” value [2]?
The value was 0.665.

And the “combination Emax” value [3]?
The value was 0.5.

And the “combination Emax” value [4]?
Its value is 0.6.

What about the “combination Emax” value [5] of the same compound?
The value was 0.885.

And the “combination Emax” value [6]?
The value was 0.431.

And the “combination Emax” value [7]?
Its value is 0.758.

What about the “combination Emax” value [8] of the same compound?
Its value is 0.516.

And the “combination Emax” value [9]?
Its value is 0.798.

And the “combination Emax” value [10]?
Its value is 0.477.

What about the “combination Emax” value [11] of the same compound?
Its value is 0.609.

And the “combination Emax” value [12]?
Its value is 0.684.

What about the “combination Emax” value [13] of the same compound?
Its value is 0.637.

And the “combination Emax” value [14]?
Its value is 0.904.

What about the “combination Emax” value [15] of the same compound?
The value was 0.57.

And the “combination Emax” value [16]?
The value was 0.722.

And the “combination Emax” value [17]?
The value was 0.613.

And the “combination Emax” value [18]?
The value was 0.968.

What about the “combination Emax” value [19] of the same compound?
The value was 0.387.

What about the “combination Emax” value [20] of the same compound?
The value was 1.

What does the source list for `O=C(c1cc(Cc2n[nH]c(=O)c3ccccc23)ccc1F)N1CCN(C(=O)C2CC2)CC1` [Olaparib] + CN(CC[C@H](CSC1=CC=CC=C1)NC2=C(C=C(C=C2)S(=O)(=O)NC(=O)C3=CC=C(C=C3)N4CCC(CC4)[C@H](C5=CC=CC=C5C6=CC=C(C=C6)Cl)O)S(=O)(=O)C(F)(F)F)CCO [AZD4320] (first compound max 10 µM, 7x7, partner max 1 µM)?
combination Emax [1]: 0.17; combination Emax [2]: 0.138; combination Emax [3]: 0.11; combination Emax [4]: 1; combination Emax [5]: 0.266; combination Emax [6]: 0.178; combination Emax [7]: 0.175; combination Emax [8]: 0.211; combination Emax [9]: 0.164; combination Emax [10]: 0.986; combination Emax [11]: 0.378; combination Emax [12]: 0.997; combination Emax [13]: 0.16; combination Emax [14]: 0.22; combination Emax [15]: 0.149; combination Emax [16]: 0.994; combination Emax [17]: 0.573; combination Emax [18]: 0.234; combination Emax [19]: 0.315; combination Emax [20]: 0.337

For `N#Cc1cnc(Nc2cc(NC[C@H]3CNCCO3)c(C(F)(F)F)cn2)cn1` [SRA737] + C=CCn1c(=O)c2cnc(Nc3ccc(N4CCN(C)CC4)cc3)nc2n1-c1cccc(C(C)(C)O)n1 [AZD1775] (first compound max 10 µM, partner max 1 µM), which “combination Emax” value [1] is on record?
Its value is 0.631.

And the “combination Emax” value [2]?
The value was 0.26.

What about the “combination Emax” value [3] of the same compound?
The value was 0.35.

And the “combination Emax” value [4]?
The value was 0.797.

What about the “combination Emax” value [5] of the same compound?
The value was 0.858.

And the “combination Emax” value [6]?
The value was 0.621.

And the “combination Emax” value [7]?
Its value is 0.777.

And the “combination Emax” value [8]?
The value was 0.442.

What about the “combination Emax” value [9] of the same compound?
The value was 0.742.

And the “combination Emax” value [10]?
Its value is 0.957.

What about the “combination Emax” value [11] of the same compound?
The value was 0.913.

What about the “combination Emax” value [12] of the same compound?
Its value is 0.698.

And the “combination Emax” value [13]?
The value was 0.727.

And the “combination Emax” value [14]?
Its value is 0.669.

And the “combination Emax” value [15]?
The value was 0.608.

What about the “combination Emax” value [16] of the same compound?
Its value is 0.952.

What about the “combination Emax” value [17] of the same compound?
Its value is 0.953.

What about the “combination Emax” value [18] of the same compound?
The value was 0.772.

What about the “combination Emax” value [19] of the same compound?
The value was 0.722.

What about the “combination Emax” value [20] of the same compound?
Its value is 0.93.
